Data published in publication PMC5218480 (PLoS ONE, 2017).

System: MV-4-11 cells
Test: Gene expression microarray analysis (Affymetrix PrimeView) and GSEA
Format: cell-based, human
Parameters: RFU PODN (11730768_x_at) / Fold change /veh PODN (11730768_x_at) / RFU LINC00158 (11744669_a_at) / Fold change /veh LINC00158 (11744669_a_at) / RFU DUSP10 (11751237_a_at) / Fold change /veh DUSP10 (11751237_a_at) / RFU ID3 (11757404_x_at) / Fold change /veh ID3 (11757404_x_at) / RFU PLEKHG5 (11737974_s_at) / Fold change /veh PLEKHG5 (11737974_s_at) / RFU LRRC4B (11730491_at) / Fold change /veh LRRC4B (11730491_at) / RFU GIMAP4 (11747438_a_at) / Fold change /veh GIMAP4 (11747438_a_at) / RFU KRT8 (11758183_x_at) / Fold change /veh KRT8 (11758183_x_at) / RFU CNN1 (11734310_a_at) / Fold change /veh CNN1 (11734310_a_at) / RFU VPS37D (11726825_at) / Fold change /veh VPS37D (11726825_at) / RFU C10orf10 (11716522_x_at) / Fold change /veh C10orf10 (11716522_x_at) / RFU KIR2DL2 /// KIR2DL4 /// KIR2DL5A /// KIR2DL5B /// KIR2DS1 /// KIR2DS2 /// KIR2DS3 /// KIR2DS4 /// KIR3DL3 /// KIR3DL3 /// KIR3DS1 (11738374_at) / Fold change /veh KIR2DL2 /// KIR2DL4 /// KIR2DL5A /// KIR2DL5B /// KIR2DS1 /// KIR2DS2 /// KIR2DS3 /// KIR2DS4 /// KIR3DL3 /// KIR3DL3 /// KIR3DS1 (11738374_at) / RFU C1QL1 (11718748_at) / Fold change /veh C1QL1 (11718748_at) / RFU TMPRSS4 (11747572_a_at) / Fold change /veh TMPRSS4 (11747572_a_at) / RFU HAMP (11756126_x_at) / Fold change /veh HAMP (11756126_x_at) / RFU RNFT2 (11725882_a_at) / Fold change /veh RNFT2 (11725882_a_at) / RFU NR4A2 (11747474_a_at) / Fold change /veh NR4A2 (11747474_a_at) / RFU ABCC12 (11746883_a_at) / Fold change /veh ABCC12 (11746883_a_at) / RFU TMEM136 (11760407_x_at) / Fold change /veh TMEM136 (11760407_x_at) / RFU CLDN22 /// WWC2 (11732394_at) / Fold change /veh CLDN22 /// WWC2 (11732394_at) / RFU HLA-DPB1 (11760878_x_at) / Fold change /veh HLA-DPB1 (11760878_x_at) / RFU SPINT1 (11716480_a_at) / Fold change /veh SPINT1 (11716480_a_at) / RFU GAP43 (11754022_s_at) / Fold change /veh GAP43 (11754022_s_at) / RFU A4GNT (11735810_at) / Fold change /veh A4GNT (11735810_at) / RFU PRB3 (11715151_x_at) / Fold change /veh PRB3 (11715151_x_at) / RFU TUBB4B (11761932_at) / Fold change /veh TUBB4B (11761932_at) / RFU CAPN14 (11732068_a_at) / Fold change /veh CAPN14 (11732068_a_at) / RFU TMCC2 (11721928_a_at) / Fold change /veh TMCC2 (11721928_a_at) / RFU IRGQ (11745062_a_at) / Fold change /veh IRGQ (11745062_a_at) / RFU FAM174B (11720279_a_at) / Fold change /veh FAM174B (11720279_a_at) / RFU TMPRSS4 (11748680_a_at) / Fold change /veh TMPRSS4 (11748680_a_at) / RFU FAM212B (11763350_a_at) / Fold change /veh FAM212B (11763350_a_at) / RFU PLEKHG5 (11743358_a_at) / Fold change /veh PLEKHG5 (11743358_a_at) / RFU ZSCAN30 (11745921_a_at) / Fold change /veh ZSCAN30 (11745921_a_at) / RFU CMKLR1 (11741424_a_at) / Fold change /veh CMKLR1 (11741424_a_at) / RFU LOC101060620 /// MAPK8IP1 (11723275_at) / Fold change /veh LOC101060620 /// MAPK8IP1 (11723275_at) / RFU SPTSSB (11747773_x_at) / Fold change /veh SPTSSB (11747773_x_at) / RFU PRSS12 (11739890_at) / Fold change /veh PRSS12 (11739890_at) / RFU BIN1 (11741810_x_at) / Fold change /veh BIN1 (11741810_x_at) / RFU WNT11 (11732464_a_at) / Fold change /veh WNT11 (11732464_a_at) / RFU C10orf10 (11716521_a_at) / Fold change /veh C10orf10 (11716521_a_at) / RFU C5orf56 (11738089_at) / Fold change /veh C5orf56 (11738089_at) / RFU CYB561 (11721691_x_at) / Fold change /veh CYB561 (11721691_x_at) / RFU ANKRD19P (11752326_a_at) / Fold change /veh ANKRD19P (11752326_a_at) / RFU OR2T12 /// OR2T33 /// OR2T8 (11738714_s_at) / Fold change /veh OR2T12 /// OR2T33 /// OR2T8 (11738714_s_at) / RFU VCAN (11748164_a_at) / Fold change /veh VCAN (11748164_a_at) / RFU JSRP1 (11732532_at) / Fold change /veh JSRP1 (11732532_at) / RFU KRTAP10-11 (11738290_x_at) / Fold change /veh KRTAP10-11 (11738290_x_at) / RFU MYO3A (11730013_a_at) / Fold change /veh MYO3A (11730013_a_at) / RFU EBF3 (11725865_a_at) / Fold change /veh EBF3 (11725865_a_at) / RFU CAMK2N1 (11719241_x_at) / Fold change /veh CAMK2N1 (11719241_x_at) / RFU C5orf56 (11738088_a_at) / Fold change /veh C5orf56 (11738088_a_at) / RFU OLFML3 (11715873_a_at) / Fold change /veh OLFML3 (11715873_a_at) / RFU LOC100653217 /// NTM (11731650_a_at) / Fold change /veh LOC100653217 /// NTM (11731650_a_at) / RFU MAPK11 (11762145_a_at) / Fold change /veh MAPK11 (11762145_a_at) / RFU FIZ1 (11724087_x_at) / Fold change /veh FIZ1 (11724087_x_at) / RFU OASL (11726364_x_at) / Fold change /veh OASL (11726364_x_at) / RFU SOX15 (11748057_x_at) / Fold change /veh SOX15 (11748057_x_at) / RFU CD79A (11719716_a_at) / Fold change /veh CD79A (11719716_a_at) / RFU HIST1H1D (11736915_at) / Fold change /veh HIST1H1D (11736915_at) / RFU CASKIN2 (11723855_a_at) / Fold change /veh CASKIN2 (11723855_a_at) / RFU LOC730098 (11760151_x_at) / Fold change /veh LOC730098 (11760151_x_at) / RFU OR4N2 (11742367_at) / Fold change /veh OR4N2 (11742367_at) / RFU PRRT2 (11749266_a_at) / Fold change /veh PRRT2 (11749266_a_at) / RFU SNX32 (11753110_a_at) / Fold change /veh SNX32 (11753110_a_at) / RFU CDHR5 (11726645_a_at) / Fold change /veh CDHR5 (11726645_a_at) / RFU RCAN1 (11760418_a_at) / Fold change /veh RCAN1 (11760418_a_at) / RFU FAM167A (11723789_a_at) / Fold change /veh FAM167A (11723789_a_at) / RFU FAM26E (11764081_at) / Fold change /veh FAM26E (11764081_at) / RFU ISYNA1 (11749810_s_at) / Fold change /veh ISYNA1 (11749810_s_at) / RFU ACY1 (11761880_at) / Fold change /veh ACY1 (11761880_at) / RFU 11764098_at / Fold change /veh 11764098_at / RFU SAMD14 (11745864_x_at) / Fold change /veh SAMD14 (11745864_x_at) / RFU NPB (11741838_a_at) / Fold change /veh NPB (11741838_a_at) / RFU TMPRSS6 (11731388_a_at) / Fold change /veh TMPRSS6 (11731388_a_at) / RFU KRTAP10-2 (11738614_at) / Fold change /veh KRTAP10-2 (11738614_at) / RFU ARHGAP8 /// PRR5-ARHGAP8 (11727945_x_at) / Fold change /veh ARHGAP8 /// PRR5-ARHGAP8 (11727945_x_at) / RFU KRTAP5-7 /// NADSYN1 (11734609_at) / Fold change /veh KRTAP5-7 /// NADSYN1 (11734609_at) / RFU RASL12 (11751679_a_at) / Fold change /veh RASL12 (11751679_a_at) / RFU CDKN2B (11736163_a_at) / Fold change /veh CDKN2B (11736163_a_at) / RFU PRF1 (11729649_at) / Fold change /veh PRF1 (11729649_at) / RFU, ZNF638 /// ZNF638-IT1 / Fold change vs veh, ZNF638 /// ZNF638-IT1 / RFU, PANK3 / Fold change vs veh, PANK3 / RFU, SH3YL1 / Fold change vs veh, SH3YL1 / RFU, ZEB2 / Fold change vs veh, ZEB2 / RFU, NRIP1 / Fold change vs veh, NRIP1 / RFU, PTTG1IP / Fold change vs veh, PTTG1IP / RFU, CAPN2 / Fold change vs veh, CAPN2 / RFU, MED14 / Fold change vs veh, MED14 / RFU, SNORA58 / Fold change vs veh, SNORA58 / RFU, C1orf63 / Fold change vs veh, C1orf63 / RFU, LRRFIP1 / Fold change vs veh, LRRFIP1 / RFU, NDUFAF7 / Fold change vs veh, NDUFAF7 / RFU, SLC12A2 / Fold change vs veh, SLC12A2 / RFU, IBTK / Fold change vs veh, IBTK / RFU, ESF1 / Fold change vs veh, ESF1 / Fold change vs veh, TMEM50B / RFU, TAOK1 / Fold change vs veh, TAOK1 / RFU, ACBD3 / Fold change vs veh, ACBD3 / RFU, TMA16 / Fold change vs veh, TMA16 / RFU, RWDD3 / Fold change vs veh, RWDD3 / RFU, BCAT1 / Fold change vs veh, BCAT1 / RFU, EDEM3 / Fold change vs veh, EDEM3 / RFU, TMEM33 / Fold change vs veh, TMEM33 / RFU, WDR75 / Fold change vs veh, WDR75 / RFU, AHCTF1 / Fold change vs veh, AHCTF1 / RFU, TFRC / Fold change vs veh, TFRC / RFU, ZDHHC17 / Fold change vs veh, ZDHHC17 / RFU, NOM1 / Fold change vs veh, NOM1 / RFU, ARL8B / Fold change vs veh, ARL8B / RFU, ZBTB11 / Fold change vs veh, ZBTB11 / RFU, TAMM41 / Fold change vs veh, TAMM41 / RFU, KIAA1704 /// LOC100996395 / Fold change vs veh, KIAA1704 /// LOC100996395 / RFU, ING1 / Fold change vs veh, ING1 / RFU, TRMT61B / Fold change vs veh, TRMT61B / RFU, FUBP3 / Fold change vs veh, FUBP3 / RFU, TP53 / Fold change vs veh, TP53 / RFU, TNKS2 / Fold change vs veh, TNKS2 / RFU, ZFP14 / Fold change vs veh, ZFP14 / RFU, ACTR2 / Fold change vs veh, ACTR2 / RFU, PPP3R1 / Fold change vs veh, PPP3R1 / RFU, PIK3R1 / Fold change vs veh, PIK3R1 / RFU, HNRNPA1 / Fold change vs veh, HNRNPA1 / RFU, RNF170 / Fold change vs veh, RNF170 / RFU, ZNF28 / Fold change vs veh, ZNF28 / RFU, RNGTT / Fold change vs veh, RNGTT / RFU, OGT / Fold change vs veh, OGT / RFU, BRD1 / Fold change vs veh, BRD1 / RFU, MARS / Fold change vs veh, MARS / RFU, ZNF655 / Fold change vs veh, ZNF655 / RFU, FAHD1 / Fold change vs veh, FAHD1 / RFU, BDP1 / Fold change vs veh, BDP1 / RFU, LRRCC1 / Fold change vs veh, LRRCC1 / RFU, ARID1A / Fold change vs veh, ARID1A / RFU, ZNF146 / Fold change vs veh, ZNF146 / RFU, ZNF330 / Fold change vs veh, ZNF330 / RFU, GPN3 / Fold change vs veh, GPN3 / RFU, C9orf123 / Fold change vs veh, C9orf123 / RFU, N4BP2L2 / Fold change vs veh, N4BP2L2 / RFU, ARFIP1 / Fold change vs veh, ARFIP1 / RFU, FAM179B / Fold change vs veh, FAM179B / RFU, BCL10 / Fold change vs veh, BCL10 / RFU, UHRF1BP1L / Fold change vs veh, UHRF1BP1L / RFU, BET1 / Fold change vs veh, BET1 / RFU, CNOT2 / Fold change vs veh, CNOT2 / RFU, ZNF268 / Fold change vs veh, ZNF268 / Fold change vs veh, ZNF507 / RFU, DGCR2 / Fold change vs veh, DGCR2 / RFU, WDSUB1 / Fold change vs veh, WDSUB1 / Fold change vs veh, HSP90B1 /// MIR3652 / RFU, ADSS / Fold change vs veh, ADSS / RFU, GK / Fold change vs veh, GK / RFU, ZNF148 / Fold change vs veh, ZNF148 / RFU, TAF9 / Fold change vs veh, TAF9 / RFU, SLC1A5 / Fold change vs veh, SLC1A5 / RFU, SLMO2 / Fold change vs veh, SLMO2 / RFU, ABCC4 / Fold change vs veh, ABCC4 / RFU, LOC101060439 /// RAP1B / Fold change vs veh, LOC101060439 /// RAP1B / RFU, RFX7 / Fold change vs veh, RFX7 / RFU, GTPBP10 / Fold change vs veh, GTPBP10 / RFU, CNEP1R1 / Fold change vs veh, CNEP1R1 / RFU, BIVM-ERCC5 /// ERCC5 / Fold change vs veh, BIVM-ERCC5 /// ERCC5 / RFU, ILF3 / Fold change vs veh, ILF3 / RFU 11762660_at / Fold change /veh 11762660_at / RFU VCAN (11757783_s_at) / Fold change /veh VCAN (11757783_s_at) / RFU DDX43 (11728927_at) / Fold change /veh DDX43 (11728927_at) / RFU KRT8 (11758188_x_at) / Fold change /veh KRT8 (11758188_x_at) / RFU NKD1 (11759106_at) / Fold change /veh NKD1 (11759106_at) / RFU SRD5A1 (11742802_a_at) / Fold change /veh SRD5A1 (11742802_a_at) / RFU TPSAB1 /// TPSB2 (11721975_s_at) / Fold change /veh TPSAB1 /// TPSB2 (11721975_s_at) / RFU GSTM3 (11746129_a_at) / Fold change /veh GSTM3 (11746129_a_at) / RFU IL23R (11737362_x_at) / Fold change /veh IL23R (11737362_x_at) / RFU TMEM51 (11727254_a_at) / Fold change /veh TMEM51 (11727254_a_at) / RFU PIWIL2 (11732686_x_at) / Fold change /veh PIWIL2 (11732686_x_at) / RFU ORM1 (11744905_x_at) / Fold change /veh ORM1 (11744905_x_at) / RFU CCDC152 (11743942_at) / Fold change /veh CCDC152 (11743942_at) / RFU ECM1 (11717891_a_at) / Fold change /veh ECM1 (11717891_a_at) / RFU IL23R (11748794_a_at) / Fold change /veh IL23R (11748794_a_at) / RFU TNFAIP8L3 (11732012_x_at) / Fold change /veh TNFAIP8L3 (11732012_x_at) / RFU MBOAT4 (11741988_at) / Fold change /veh MBOAT4 (11741988_at) / RFU 11764193_at / Fold change /veh 11764193_at / RFU TMEM53 (11763286_at) / Fold change /veh TMEM53 (11763286_at) / RFU MAGEB2 (11727129_at) / Fold change /veh MAGEB2 (11727129_at) / RFU TMEM200A (11744735_a_at) / Fold change /veh TMEM200A (11744735_a_at) / RFU CCDC152 (11751479_a_at) / Fold change /veh CCDC152 (11751479_a_at) / RFU FAM211A (11726209_a_at) / Fold change /veh FAM211A (11726209_a_at) / RFU RGS16 (11746705_a_at) / Fold change /veh RGS16 (11746705_a_at) / RFU VCAN (11755009_s_at) / Fold change /veh VCAN (11755009_s_at) / RFU RHOB (11743442_s_at) / Fold change /veh RHOB (11743442_s_at) / RFU RGS16 (11720943_a_at) / Fold change /veh RGS16 (11720943_a_at) / RFU RGS16 (11720944_at) / Fold change /veh RGS16 (11720944_at) / RFU, VPS4B / Fold change vs veh, VPS4B / RFU, CREB1 / Fold change vs veh, CREB1 / RFU, DNAJC13 / Fold change vs veh, DNAJC13 / RFU, GNAQ / Fold change vs veh, GNAQ / RFU, CDK5R1 / Fold change vs veh, CDK5R1 / RFU, ZRANB3 / Fold change vs veh, ZRANB3 / RFU, CUL4A / Fold change vs veh, CUL4A / RFU, CCNY / Fold change vs veh, CCNY / RFU, UFL1 / Fold change vs veh, UFL1 / RFU, COG3 / Fold change vs veh, COG3 / RFU, DIAPH2 / Fold change vs veh, DIAPH2 / RFU, SKA2 / Fold change vs veh, SKA2 / RFU, AFF3 / Fold change vs veh, AFF3 / RFU, LMF1 / Fold change vs veh, LMF1 / RFU, IPO11 / Fold change vs veh, IPO11 / RFU, DFFB / Fold change vs veh, DFFB / RFU, FOXP1 / Fold change vs veh, FOXP1 / RFU, CARD8 / Fold change vs veh, CARD8 / RFU, STRN3 / Fold change vs veh, STRN3 / RFU, ADK / Fold change vs veh, ADK / RFU, RASSF2 / Fold change vs veh, RASSF2 / RFU, WIPF1 / Fold change vs veh, WIPF1 / RFU, LARP1B / Fold change vs veh, LARP1B / RFU, RASA1 / Fold change vs veh, RASA1 / RFU, RB1 / Fold change vs veh, RB1 / RFU, PPFIA1 / Fold change vs veh, PPFIA1 / RFU, MAT2A / Fold change vs veh, MAT2A / RFU, CCT5 / Fold change vs veh, CCT5 / RFU, WDR92 / Fold change vs veh, WDR92 / RFU, CUX1 / Fold change vs veh, CUX1 / RFU, TTC7A / Fold change vs veh, TTC7A / RFU, TMEM135 / Fold change vs veh, TMEM135 / RFU, DEPTOR / Fold change vs veh, DEPTOR / RFU, CPM / Fold change vs veh, CPM / RFU, DNAJB6 / Fold change vs veh, DNAJB6 / RFU, CACNA2D3 / Fold change vs veh, CACNA2D3 / RFU, DTX4 / Fold change vs veh, DTX4 / RFU, TFCP2 / Fold change vs veh, TFCP2 / RFU, GMCL1 /// GMCL1P1 / Fold change vs veh, GMCL1 /// GMCL1P1 / RFU, AEBP2 / Fold change vs veh, AEBP2 / RFU, SNHG1 /// SNORD22 /// SNORD25 /// SNORD26 /// SNORD27 /// SNORD28 /// SNORD29 /// SNORD31 / Fold change vs veh, SNHG1 /// SNORD22 /// SNORD25 /// SNORD26 /// SNORD27 /// SNORD28 /// SNORD29 /// SNORD31 / Fold change (Aza/veh), C12orf56 (ProbeSet 11735607_a_at) / Fold change (ACY-1035/veh), C12orf56 (ProbeSet 11735607_a_at) / Fold change (Aza/veh), FGFR1OP (ProbeSet 11751329_s_at) / Fold change (ACY-1035/veh), FGFR1OP (ProbeSet 11751329_s_at) / Fold change (Aza/veh), VPS36 (ProbeSet 11739960_a_at) / Fold change (ACY-1035/veh), VPS36 (ProbeSet 11739960_a_at) / RFU SYPL1 (11715823_x_at) / Fold change /veh SYPL1 (11715823_x_at) / RFU IGFBP7 (11715501_s_at) / Fold change /veh IGFBP7 (11715501_s_at) / RFU REEP3 (11722064_at) / Fold change /veh REEP3 (11722064_at) / RFU IGLL1 (11728026_x_at) / Fold change /veh IGLL1 (11728026_x_at): dose or concentration left out as unconfirmed
Settings: MV-4-11 cells, 48 hours

## Nc1ncn([C@@H]2O[C@H](CO)[C@@H](O)[C@H]2O)c(=O)n1 [azacitidine]
  RFU MBOAT4 (11741988_at): 11.61 RFU
